These are literature values, as cited in PubChem BioAssay AID1259409 (Chemical Carcinogenesis Research Information System (CCRIS), 2018).

For this data set, the system named is rodent chemically induced tumor inhibition, incidence and multiplicity. The experiment in a line: CCRIS tumor inhibitor studies. The following applies: Carcinogen: N-METHYL-N-NITROSOUREA, 684-93-5, Route [Inhibitor]: ORAL, Promoter: NONE USED.

Turning to `CC1=C(/C=C/C(C)=C/C=C/C(C)=C\C(=O)O)C(C)(C)CCC1`, the “tumour outcome (control, treated, inhibition, significance)” value is reported as 8/30 (27%), 2/23 (9%), 67%, p<0.05 (Dose [Inhibitor]: 25 MG/KG DAILY IN DIET STARTING 1 D AFTER LAST CARCINOGEN INJECTION AND CONTINUING FOR 256 D (STUDY DURATION: 285 D), Species: RAT, Strain/Sex: WISTAR-LEWIS/FEMALE, Target Tissue: Type of Lesion: URINARY BLADDER: PAPILLARY UROTHELIAL TUMOR, Dose [Carcinogen]: 1.5 MG IN 0.15 ML SALINE INJECTED INTO A SURGICALLY EXPOSED BLADDER 1/2 WK FOR A TOTAL OF 3 INJECTIONS); 6/63 (10%), 13/61 (21%), -110%, not significant (Dose [Inhibitor]: 120 MG/KG DIET DAILY STARTING 1 WK AFTER LAST CARCINOGEN TREATMENT AND CONTINUING FOR 6 MO (STUDY DURATION: 9 MO), Species: HAMSTER, Strain/Sex: SYRIAN/MALE, Target Tissue: Type of Lesion: TRACHEA: BENIGN EPITHELIAL NEOPLASM, Dose [Carcinogen]: 0.5% IN 1 ML PHOSPHATE-BUFFERED SALINE 1/WK FOR 12 WK); 4/63 (6%), 12/61 (20%), -233%, p<0.05 (Dose [Inhibitor]: 120 MG/KG DIET DAILY STARTING 1 WK AFTER LAST CARCINOGEN TREATMENT AND CONTINUING FOR 6 MO (STUDY DURATION: 9 MO), Species: HAMSTER, Strain/Sex: SYRIAN/MALE, Target Tissue: Type of Lesion: TRACHEA: CARCINOMA, Dose [Carcinogen]: 0.5% IN 1 ML PHOSPHATE-BUFFERED SALINE 1/WK FOR 12 WK); 10/63 (16%), 22/61 (36%), -125%, p<0.05 (Dose [Inhibitor]: 120 MG/KG DIET DAILY STARTING 1 WK AFTER LAST CARCINOGEN TREATMENT AND CONTINUING FOR 6 MO (STUDY DURATION: 9 MO), Species: HAMSTER, Strain/Sex: SYRIAN/MALE, Target Tissue: Type of Lesion: TRACHEA: EPITHELIAL NEOPLASM, Dose [Carcinogen]: 0.5% IN 1 ML PHOSPHATE-BUFFERED SALINE 1/WK FOR 12 WK); 6/63 (10%), 13/61 (21%), -110%, not significant (Dose [Inhibitor]: 120 MG/KG IN DIET DAILY FOR 6 MO STARTING 1 WK AFTER FINAL CARCINOGEN DOSE (STUDY DURATION: 9 MO), Species: HAMSTER, Strain/Sex: SYRIAN/MALE, Target Tissue: Type of Lesion: TRACHEA: BENIGN EPITHELIAL NEOPLASM, Dose [Carcinogen]: 0.5% SOLUTION FOR 5 SECOND EXPOSURE 1/WK FOR 12 WK); 10/63 (16%), 22/61 (36%), -125%, p<0.05 (Dose [Inhibitor]: 120 MG/KG IN DIET DAILY FOR 6 MO STARTING 1 WK AFTER FINAL CARCINOGEN DOSE (STUDY DURATION: 9 MO), Species: HAMSTER, Strain/Sex: SYRIAN/MALE, Target Tissue: Type of Lesion: TRACHEA: EPITHELIAL NEOPLASM, Dose [Carcinogen]: 0.5% SOLUTION FOR 5 SECOND EXPOSURE 1/WK FOR 12 WK). Moreover, the “tumour outcome (control, treated, inhibition, significance)” value was 10/23 (43%), 27/87 (31%), 28%, p 0.11 (Dose [Inhibitor]: 120 OR 300 MG/KG DIET DAILY STARTING ON THE DAY OF THE FIRST INSTILLATION OF CARCINOGEN OR 1 D AFTER THE LAST CARCINOGEN, Species: RAT, Strain/Sex: WISTAR-LEWIS/FEMALE, Target Tissue: Type of Lesion: URINARY BLADDER: CARCINOMA, Dose [Carcinogen]: 1.5 MG IN 0.15 ML OF 0.9% NACL SOLUTION INSTILLED DIRECTLY INTO THE URINARY BLADDER 1/2 WK FOR A TOTAL OF 3 DOSES); 13/23 (57%), 35/87 (40%), 30%, p 0.08 (Dose [Inhibitor]: 120 OR 300 MG/KG DIET DAILY STARTING ON THE DAY OF THE FIRST INSTILLATION OF CARCINOGEN OR 1 D AFTER THE LAST CARCINOGEN, Species: RAT, Strain/Sex: WISTAR-LEWIS/FEMALE, Target Tissue: Type of Lesion: URINARY BLADDER: NEOPLASM, Dose [Carcinogen]: 1.5 MG IN 0.15 ML OF 0.9% NACL SOLUTION INSTILLED DIRECTLY INTO THE URINARY BLADDER 1/2 WK FOR A TOTAL OF 3 DOSES); 4/23 (17%), 8/87 (9%), 47%, p 0.11 (Dose [Inhibitor]: 120 OR 300 MG/KG DIET DAILY STARTING ON THE DAY OF THE FIRST INSTILLATION OF CARCINOGEN OR 1 D AFTER THE LAST CARCINOGEN, Species: RAT, Strain/Sex: WISTAR-LEWIS/FEMALE, Target Tissue: Type of Lesion: URINARY BLADDER: SQUAMOUS CELL CARCINOMA, Dose [Carcinogen]: 1.5 MG IN 0.15 ML OF 0.9% NACL SOLUTION INSTILLED DIRECTLY INTO THE URINARY BLADDER 1/2 WK FOR A TOTAL OF 3 DOSES); 7/23 (30%), 23/87 (26%), 13%, p 0.23 (Dose [Inhibitor]: 120 OR 300 MG/KG DIET DAILY STARTING ON THE DAY OF THE FIRST INSTILLATION OF CARCINOGEN OR 1 D AFTER THE LAST CARCINOGEN, Species: RAT, Strain/Sex: WISTAR-LEWIS/FEMALE, Target Tissue: Type of Lesion: URINARY BLADDER: TRANSITIONAL CELL CARCINOMA, Dose [Carcinogen]: 1.5 MG IN 0.15 ML OF 0.9% NACL SOLUTION INSTILLED DIRECTLY INTO THE URINARY BLADDER 1/2 WK FOR A TOTAL OF 3 DOSES).
